Patent US6603046B1, “Bis-aromatic a,β-unsaturated ketones” (Lica Pharmaceuticals A/S, priority 1992, dated 2003)
Read-outs that look alike come from different tables or passages of the source.

Key:
[1] = tested on: chloroquine resistant P. falciparum DD2 strain; assay: In vitro growth of P. falciparum DD2, 3H-hypoxanthine uptake (Example 15); format: cell-based, Plasmodium falciparum; settings: title: percentage inhibition of 3H-hypoxanthine uptake
L. major promastigotes = L. major promastigotes from 4-days cultures, 3H-thymidine uptake (Examples 5, 14); format: cell-based, Leishmania major; settings: Leishmania major, Table 14.1, read-out: percentage inhibition of promastigotes (upper figure); for inhibition at 0.5 µg/mL: 0.5 μg/ml; for inhibition at 1 µg/mL: 1 μg/ml; for inhibition at 5 µg/mL: 5 μg/ml; for inhibition at 10 µg/mL: 10 μg/ml
Description: Parasite cultures. The same parasite culture as described in Example 4. Promastigotes were harvested on day 4 of the culture and used for the parasiticidal assay.
Effect on promastigotes. […] Following incubation, […] of ^3H-thymidine was added to each well and further incubated for 18 hrs. Promastigotes were then harvested on filter paper by means of a cell harvester (Skatron, Lierbyen, Norway), extensively washed with distilled water and counted in a scintillation counter (Minaxi Ti-Carb 4000, United Technologies, Packard, USA).
L. major promastigotes. The L. major promastigotes were prepared as described in Example 4 and harvested after 4 days.

P. falciparum = P. falciparum growth in vitro (Table 14.1, strain not stated); format: cell-based; settings: Plasmodium falciparum; for inhibition at 0.5 µg/mL: 0.5 μg/ml; for inhibition at 1 µg/mL: 1 μg/ml; for inhibition at 10 µg/mL: 10 μg/ml
Description: The P. falciparum experimental setup was as described in Example 15.
Testing of the effect of drugs and serum on the in vitro growth of the parasites. The experiments in which compounds were tested for their ability to inhibit parasite growth were performed by a modification of the method originally described by Jensen et al. (1982). Fifty μl of parasitized erythrocytes (parasitemia approximately 1%) in a concentration of 5×10^8/ml and 50 μl of RPMI medium containing different concentrations of the test compound was added to each well of a 96 well flat-bottomed microtiter plate (Nunc). The cultures were then incubated for 48 hours, 24 hours before termination of the culture adding 20 μl of 3-H-hypoxanthine (40 uCi/ml) (New England Nuclear, Boston, Mass., USA) was added to each well. The cultures were then harvested onto glass fiber filters using a Skatron cell harvester (Skatron, Lierbyen, Norway), and the incorporation of 3-H-hypoxanthine into the DNA of dividing parasites was determined by liquid scintillation spectrometry.

human lymphocytes = assay: Lymphocyte Proliferation Assay, 3H-thymidine incorporation (Example 13); settings: Homo sapiens, Lymphocyte, read-out: inhibition of lymphocytes (lower figure)
[2] = read-out: inhibition of malaria parasites (middle figure) (converted)
[3] = 5 μg/ml, read-out: inhibition of malaria parasites (middle figure) (converted)

Row | Structure (SMILES) | Growth in % of control (mean ± SEM) ([1]; 0.5 μg/ml) | Growth in % of control (mean ± SEM) ([1]; 1 μg/ml) | Growth in % of control (mean ± SEM) ([1]; 5 μg/ml) | Growth in % of control (mean ± SEM) ([1]; 10 μg/ml) | inhibition at 0.5 µg/mL (L. major promastigotes) | inhibition at 1 µg/mL (L. major promastigotes) | inhibition at 5 µg/mL (L. major promastigotes) | inhibition at 10 µg/mL (L. major promastigotes) | inhibition at 5 µg/mL (P. falciparum; read-out: inhibition of malaria parasites (middle figure)) | inhibition at 0.5 µg/mL (P. falciparum; [2]) | inhibition at 1 µg/mL (P. falciparum; [2]) | inhibition at 10 µg/mL (P. falciparum; [2]) | inhibition at 0.5 µg/mL (human lymphocytes) | inhibition at 1 µg/mL (human lymphocytes) | inhibition at 5 µg/mL (human lymphocytes) | inhibition at 10 µg/mL (human lymphocytes) | inhibition at 5 µg/mL (P. falciparum; [3])
1 | COCOc1ccc(C(=O)/C=C/c2ccc(OC)cc2OC)cc1 [2,4-Dimethoxy-4′-methoxymethoxychalcone, 2,4-dimethoxy-4′-methoxymethoxychalcone] | 14.0 ± 6.8% | 0 ± 10.9% | 0 ± 10.2% | 40.8 ± 9.3% |  |  |  |  |  |  |  |  |  |  |  |  | 
2 | COc1ccc(OC)c(/C=C/C(=O)c2ccc(O)cc2)c1 [2,5-Dimethoxy-4′-hydroxychalcone] | 14 ± 75% | 21.2 ± 11.1% | 68.4 ± 6.8% | 92.5 ± 2.4% |  |  |  |  |  |  |  |  |  |  |  |  | 
3 | COc1ccc(OC)c(/C=C/C(=O)c2ccccc2)c1 [2,5-Dimethoxychalcone] | 11 ± 7.7% | 5.5 ± 5.1% | 27.1 ± 5.3% | 58.8 ± 6.4% |  |  |  |  |  |  |  |  |  |  |  |  | 
4 | C=CCOc1ccc(C(=O)/C=C/c2ccc(OC)c(OC)c2)cc1 [3,4-Dimethoxy-4′-allyloxychalcone, 3,4-dimethoxy-4′-prop-2-enyloxychalcone] | 0 ± 11.3% | 9.4 ± 15.8% | 16.2 ± 5.5% | 52.8 ± 4.7% |  |  |  |  |  |  |  |  |  |  |  |  | 
5 | C=CCOc1ccc(C(=O)/C=C/c2cc(OC)cc(OC)c2)cc1 [3,5-Dimethoxy-4′-allylchalcone, 3,5-dimethoxy-4′-prop-2-enyloxychalcone] | 9.1 ± 5.2% | 3.4 ± 4.7% | 44 ± 8.1% | 79.1 ± 10.5% |  |  |  |  |  |  |  |  |  |  |  |  | 
6 | COc1ccc(/C=C/C(=O)c2ccccc2)c(OC)c1 [drawing 67] |  |  |  |  | 14.5 ± 11.6% | 27 ± 13.7% | 77.8 ± 11.3% | 95.5 ± 3.8% | 35.6% | 0% | 14.7% | 81.8% | 9.1% | 9.2% | 2% | 3.1% | 
7 | COc1ccc(/C=C/C(=O)c2ccc(O)cc2)c(OC)c1 [drawing 70] |  |  |  |  | 20 ± 20.6% | 29 ± 22.2% | 66.9 ± 15.9% | 90.9 ± 7.4% |  | 2.2% | 14.8% | 64.2% | 1.5% | 6.3% | 2.4% | 4% | 31.6%
8 | COc1ccc(OC)c(/C=C/C(=O)c2ccc(O)cc2)c1 [drawing 71] |  |  |  |  | 34.3% | 61.9% | 96.2% | 99.1% |  | 15.2% | 23.1% | 93.1% | 3.2% | 6.9% | 78.8% | 98.2% | 71%
